l = locked nucleic acid (LNA); d = 2'-deoxy (DNA)
Experiments:
NCI-H929 MM xenografts = assay: In vivo anti-MM activity in NCI-H929 xenografted SCID/NOD mice
Description: (§1) Male CB-17 severe combined immunodeficient (SCID) mice (6- to 8-weeks old; Harlan Laboratories, Inc., Indianapolis) were housed and monitored in our Animal Research Facility. All experimental procedures and protocols had been approved by the Institutional Ethical Committee (Magna Graecia University) and conducted according to protocols approved by the National Directorate of Veterinary Services (Italy). In accordance with institutional guidelines, mice were sacrificed when tumors reached 2 cm in diameter or in the event of paralysis or major compromise, to prevent unnecessary suffering. Animal experimental procedures have been performed as in previous reports (Di Martino et al, CCR 2012; Di Martino el al. Oncotarget 2013, Di Martino et al PlosOne 2014). Briefly, mice were subcutaneously inoculated with 5×10^6 NCI-H929 cells and treatments started when palpable tumors became detectable, approximately 3 weeks following injection of MM cells. Treatments were performed intraperitoneally with different schedules in order to reach the Maximun Tolerated Dose (MTD) and a dose-response curve. Mice were also inoculated with 5×10^6 luciferase gene-marked U266, AMO-1, AMO-1/abzb, treatments were performed intraperitoneally (i.p.), and tumor volume were measured by IVIS Lumina II.
The tumor sizes were assessed by Caliper measurement. […]

AMO1/abzb xenografts = assay: In vivo tumor growth of Bortezomib-refractory AMO1/abzb xenografts (IVIS); parameters: species or system mice; settings: I.P. 2 mg/kg at day 1-4-8-15-22; Bortezomib-refractory model
Description: as §1, with “Briefly, mice were subcutaneously inoculated with 5×10^6 NCI-H929 cells and treatments started when palpable tumors became detectable, approximately 3 weeks following injection of MM cells. Treatments were performed intraperitoneally with different schedules in order to reach the Maximun Tolerated Dose (MTD) and a dose-response curve.” left out
In vivo anti-MM activity of LNA gapmer_06 was next evaluated in NOD/SCID mice bearing subcutaneous AMO1 xenografts. […] Tumors volume were measured using IVIS LUMINA II Imaging We next evaluate the in vivo activity in Bortezomib-refractory model of human MM. […] Tumors volume were measured using IVIS LUMINA II Imaging System.

U266 cells = assay: U266 orthotopic model of human MM (IVIS); assay type: in vivo, mice; settings: I.P. 2 mg/kg at day 1-4-8-15-22; compared to controls
Description: Male CB-17 severe combined immunodeficient (SCID) mice (6- to 8-weeks old; Harlan Laboratories, Inc., Indianapolis) were housed and monitored in our Animal Research Facility. All experimental procedures and protocols had been approved by the Institutional Ethical Committee (Magna Graecia University) and conducted according to protocols approved by the National Directorate of Veterinary Services (Italy). In accordance with institutional guidelines, mice were sacrificed when tumors reached 2 cm in diameter or in the event of paralysis or major compromise, to prevent unnecessary suffering. […] Mice were also inoculated with 5×10^6 luciferase gene-marked U266, AMO-1, AMO-1/abzb, treatments were performed intraperitoneally (i.p.), and tumor volume were measured by IVIS Lumina II.
The in vivo activity of gapmer_06 was also evaluate in a orthotopic model of human MM using U266 cells, to explore the efficacy in relation to the microenvironment. […] Tumor growth was monitored using IVIS LUMINA II Imaging System. […] Engraftment was determined by sacrificing mice after 10 weeks and analyzing bone marrow for luciferase gene-marked U266 cells. […] Mice were treated I.P. with gapmer_06 at concentration of 2 mg/kg at day 1-4-8-15-22, and serum shulL-6R levels were serially determined as a marker of tumor growth.

[1] = system: Capan1, MCF7, MDA231, LXF-289, A-549, NCI-H82, 5637, BCMW.1 and MPM-209 cells; assay: CCK-8 proliferation of non-myeloma cancer cell lines after gymnotic exposure; assay type: cell-based, Human; settings: 6 days gymnotic exposure, 0-2,5-5-10 μM
Experimental: Cells were seeded at low plating density in order to reach confluence on the final day of the experiments (day 6). Cell number at plating ranged from 0.5 to 2.5×10^3 in 96-well plates, from 2.5 to 10×10^3 in 12-well plates and from 1 to 3×10^4 in 6-well plates.
Cells were seeded in 100 μL (suspension cell lines) or 50 μL (adherent cell lines) of culture medium at a density ranging from 0,5 to 2,5×10^3 cells per well. Survival was evaluated by both Cell Counting Kit-8 colorimetric assay (CCK-8, Dojindo Molecular Technologies, Japan) and CellTiter-Glo Luminescent Cell Viability Assay (Promega Madison, Wis., USA). Assays were performed according to the manufacturer's instructions. The optical density (OD) was evaluated at wave length of 450 nm. Both OD and luminescence were recorded with the GloMax-multi detection system (Promega, Madison, Wis., USA).
Specifically, we gymnotically exposed for 6 days to 0-2,5-5-10 μM of gapmer_06, the following cell lines: Capan1 pancreatic cancer cells, MCF7 and MDA231 breast cancer cells, LXF-289, A-549 and NCI-H82 lung cancer cells, 5637 bladder cancer cells, BCMW.1 Waldenstrom Macroglobulinemia cells and MPM-209 mesothelioma cells.

gapmer_06: LNA/DNA gapmer, SEQ ID 4 (14 mer): +T*+A*+C*T*T*G*C*T*T*G*G*+C*+T*+T; + LNA, * phosphorothioate (antisense TACTTGCTTGGCTT; sugars from the 5' end l3 d8 l3, all phosphorothioate, methylation of C not given here)
survival (Kaplan-Meier) (NCI-H929 MM xenografts; intraperitoneal treatment, as compared to saline): significant prolongation of survival | tumor growth (caliper tumor volume) (NCI-H929 MM xenografts; intraperitoneally, 75-50-25 μg once weekly or 25-12.5 μg twice weekly, vs saline): significant (P<0.05) inhibition of tumor growth in a dose dependent-manner | tumor growth (IVIS tumor volume) (AMO1/abzb xenografts): significant tumor-growth inhibition | tumor growth (IVIS) (U266 cells): significant tumor-growth inhibition | proliferation (CCK-8 cell growth analysis) [1]: impair proliferation of all cell lines
